The values below come from patent US20160129011A1, “BICYCLO 2,3-BENZODIAZEPINES AND SPIROCYCLICALLY SUBSTITUTED 2,3-BENZODIAZEPINES” (BAYER PHARMA AKTIENGESELLSCHAFT, priority 2013, published 2016).

For one experiment, the target named is T1, BRD4 (BD1) (Homo sapiens, UniProt O60885).
T1 construct: longer constructs also being possible, preferably amino acids 44-168; made in house; host or cells: E. coli
Nature of the experiment: Binding assay BRD4/acetylated peptide H4 (TR-FRET protein-protein interaction assay). As to conditions: BRD4 (BD1) / acetylated histone H4 peptide. A digest of the protocol: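 His6-tagged BRD4 BD1 (aa 67-152, E. coli-expressed, typically 10 nM) was used with a biotinylated tetra-acetylated H4 peptide, and compounds at 0.1 nM–20 μM in duplicate. After 10 min preincubation, mixtures were incubated 1 h at 22 °C, then ≥3 h at 4 °C. Read-out was the TR-FRET 665/622 nm ratio (Eu-streptavidin to anti-His-XL665); IC50 from a 4-parameter fit.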

The subject of another experiment is MOLM-13 cells. Put plainly: Cell proliferation assay (alamarBlue), MOLM-13. It is filed as cell-based. As to conditions: Homo sapiens, MOLM-13; acute myeloid leukaemia cell line, 96 h incubation. In outline:
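MOLM-13 cells in RPMI1640/10% FCS were plated overnight, then exposed to seven compound dilutions (1E-5 to 1E-8 M) for 96 h at 37 °C. Viability was read by alamarBlue fluorescence (ex 530/em 590 nm). Pre-treatment readings were subtracted, and IC50 was calculated against buffer-treated cells.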

A further experiment has as its system MV4-11 cells. Put plainly: Cell proliferation assay (alamarBlue), MV4-11. It is filed as cell-based. As to conditions: Homo sapiens, acute myeloid leukaemia cell line, 72 h incubation. Here is the method: (§1) In accordance with the invention, the ability of the substances to inhibit cell proliferation was determined. Cell viability was determined by means of the alamarBlue® reagent (Invitrogen) in a Victor X3 Multilabel Reader (Perkin Elmer). The excitation wavelength was 530 nm and the emission wavelength […].
The MV4-11 cells (ATCC, CRL 9591) were sown at a concentration of 5000 cells/well in 100 μl of growth medium (RPMI1640, 10% FCS) on 96-well microtitre plates.
(§2) The MDA-MB-231 cells (DSMZ, ACC 732) were sown at a concentration of 4000 cells/well in 100 μl of growth medium (DMEM/Ham's F12 medium, 10% FCS) on 96-well microtitre plates. After overnight incubation at 37° C., the fluorescence values (CI values) were determined. Then the plates were treated with various substance dilutions (1E-5 M, 3E-6 M, 1E-6 M, 3E-7 M, 1E-7 M, 3E-8 M, 1E-8 M) and incubated at 37° C. for 72 (MV4-11, LOX-IMVI cells), 96 (MOLM-13, B16F10, […] cells), 120 (MOLP-8, KMS-12-PE cells) or 168 (LAPC-4 cells) hours. Subsequently, the fluorescence values were determined (CO values). For the data analysis, the CI values were subtracted from the CO values and the results were compared between cells which had been treated with various dilutions of the substance or only with buffer solution. This was used to calculate the IC50 values (substance concentration required for 50% inhibition of cell proliferation). […]

For another experiment, the system named is B16F10 cells. Nature of the experiment: Cell proliferation assay (alamarBlue), B16F10. As to conditions: Mus musculus, B16-F10; melanoma (BRAF wild-type) cell line, 96 h incubation. It is filed as cell-based. Here is the method:
as §1
The B16F10 cells (ATCC, CRL-6475) were sown at a concentration of 300-500 cells/well in 100 μl of growth medium (DMEM with phenol red, 10% FCS) on 96-well microtitre plates.
(§3) The MDA-MB-231 cells (DSMZ, ACC 732) were sown at a concentration of 4000 cells/well in 100 μl of growth medium (DMEM/Ham's F12 medium, 10% FCS) on 96-well microtitre plates. After overnight incubation at 37° C., the fluorescence values (CI values) were determined. Then the plates were treated with various substance dilutions (1E-5 M, 3E-6 M, 1E-6 M, 3E-7 M, 1E-7 M, 3E-8 M, 1E-8 M) and incubated at 37° C. for 72 (MV4-11, LOX-IMVI cells), 96 (MOLM-13, B16F10, […] cells), 120 (MOLP-8, KMS-12-PE cells) or 168 (LAPC-4 cells) hours. Subsequently, the fluorescence values were determined (CO values). For the data analysis, the CI values were subtracted from the CO values and the results were compared between cells which had been treated with various dilutions of the substance or only with buffer solution. This was used to calculate the IC50 values (substance concentration required for 50% inhibition of cell proliferation).
(§4) The substances were examined in the cell lines of Table 1 which, in an exemplary manner, represent the stated indications: […]

The subject of a further experiment is LOX-IMVI cells. Nature of the experiment: Cell proliferation assay (alamarBlue), LOX IMVI. It is filed as cell-based. As to conditions: Homo sapiens, melanoma (BRAF mutated) cell line, 72 h incubation. How it is done:
as §1
The LOX-IMVI cells (NCI-60) were sown at a concentration of 1000 cells/well in 100 μl of growth medium (RPMI1640, 10% FCS) on 96-well microtitre plates.
as §2

The next experiment deals with MOLP-8 cells. Put plainly: Cell proliferation assay (alamarBlue), MOLP-8. Format: cell-based. As to conditions: Homo sapiens, MOLP-8; multiple myeloma cell line, 120 h incubation. Here is the method: as §1
The MOLP-8 cells (DSMZ, ACC 569) were sown at a concentration of 4000 cells/well in 100 μl of growth medium (RPMI1640, 20% FCS) on 96-well microtitre plates.
as §3, §4

A further experiment concerns KMS-12-PE cells. Put plainly: Cell proliferation assay (alamarBlue), KMS-12-PE. Format: cell-based. As to conditions: Homo sapiens, multiple myeloma cell line, 120 h incubation. How it is done: as §1
The KMS-12-PE cells (DSMZ, ACC 606) were sown at a concentration of 4000 cells/well in 100 μl of growth medium (RPMI1640, 20% FCS) on 96-well microtitre plates.
as §2

Another experiment concerns LAPC-4 cells. Put plainly: Cell proliferation assay (alamarBlue), LAPC-4. Format: cell-based. As to conditions: Homo sapiens, LAPC4; prostate cancer cell line, 1 nM methyltrienolone, 168 h incubation. How it is done: as §1
The LAPC-4 cells (ATCC, PTA-1441TM) were sown at a concentration of 4000 cells/well in 100 μl of growth medium (RPMI1640, 2 mM L-glutamine, 10% cFCS) on 96-well microtitre plates. One day later, the LAPC-4 cells were treated with 1 nM methyltrienolone and various substance dilutions.
The MDA-MB-231 cells (DSMZ, ACC 732) were sown at a concentration of 4000 cells/well in 100 μl of growth medium (DMEM/Ham's F12 medium, 10% FCS) on 96-well microtitre plates. After overnight incubation at 37° C., the fluorescence values (CI values) were determined. Then the plates were treated with various substance dilutions (1E-5 M, 3E-6 M, 1E-6 M, 3E-7 M, 1E-7 M, 3E-8 M, 1E-8 M) and incubated at 37° C. for 72 (MV4-11, LOX-IMVI cells), 96 (MOLM-13, B16F10, […] cells), 120 (MOLP-8, KMS-12-PE cells) or 168 (LAPC-4 cells) hours. Subsequently, the fluorescence values were determined (CO values). […]

Another experiment deals with MDA-MB-231 cells. Nature of the experiment: Cell proliferation assay (alamarBlue), MDA-MB-231. It is filed as cell-based. As to conditions: Homo sapiens, mammary carcinoma cell line, 96 h incubation. Here is the method:
as §1, §3, §4

`CNC(=O)N1N=C(c2ccc(N3C[C@H]4CC[C@@H](C3)O4)cc2)c2cc(OC)c(OC)cc2C[C@@H]1C` [Example 4.2, (4S)-7,8-dimethoxy-N,4-dimethyl-1-[4-(8-oxa-3-azabicyclo[3.2.1]oct-3-yl)phenyl]-4,5-dihydro-3H-2,3-benzodiazepine-3-carboxamide]: the IC50 at BRD4 (BD1) came out at 10 nM; with MOLM-13 cells, 40 nM; with MV4-11 cells it was 30 nM; with B16F10 cells it was 20 nM; in the experiment with LOX-IMVI cells, 170 nM; in the experiment on MOLP-8 cells, 20 nM. Besides, the values for the IC50 in the experiment on KMS-12-PE cells, in the experiment with LAPC-4 cells and in the experiment with MDA-MB-231 cells were 30 nM, 10 nM and 40 nM, respectively.
